Assay results as given in patent publication US9260326B2, “Selective oxoanion separation using a tripodal ligand” (UT-BATTELLE, LLC, priority 2012, dated 2016).

Key:
[1] = Pairwise competitive crystallization with L1, Na-based system
Method: (§1) The experiments described below were generally conducted as described above and as described in Rajbanshi et al. 2012.
To assess the size recognition of the crystalline capsule in the Na-based system, similar pairwise competitive crystallization experiments were performed with L1 (two equivalents) and Na2SO4/Na2SeO4 mixtures (one equivalent each) in H2O/MeOH. […] The SO4^2−/SeO4^2− molar ratio found in the crystalline solid resulting from the competitive crystallization was 31.3, indicating strong size recognition for SO4^2−. […] The increased SO4^2−/SeO4^2− selectivity in the Na-based system may be attributed to the smaller size of the Na capsule (d(N . . . N)=9.51 Å) compared to the Mg capsule (d(N . . . N)=9.65 Å), which favored the smaller sulphate anion.
In comparison with the good SO4^2−/SeO4^2− selectivity observed in the Na-based crystallizations, the competitive crystallization experiment involving a Na2SO4/Na2CrO4 mixture under similar conditions yielded crystals with a SO4^2−/CrO4^2− ratio of only 2.0. […] As a result, binding of chromate is inherently favored due to its stronger hydrogen bond acceptor ability compared to sulphate, a factor that apparently offsets much of the size discrimination effect.

[2] = Pairwise competitive crystallization with L1, K-based system
Excerpt: as §1
For the K-based system, pairwise competitive crystallizations with L1 gave SO4^2/SeO4^2− selectivity and SO4^2−/CrO4^2− selectivity ratios of 13.3 and 1.1, respectively. The potassium capsule was the smallest of the three systems (d(N . . . N)=9.21 Å).

[3] = Sulfate separation and L1 recycling, Mg-based system, Simulant 1
Method: For comparison purposes, solid L1.2H2O (478 mg, 0.88 mmol) and Mg(NO3)2 (113 mg, 0.44 mmol) were added to 10 mL of Simulant 1 solution (Table 1) containing 0.44 mmol SO4^2−. The mixture was stirred magnetically at room temperature for 48 h, and the resulting solid was filtered, washed with water, and dried. The identity of the crystalline product, MgSO4(L1)2(H2O)6 (Compound 3) was confirmed by PXRD and FTIR spectroscopy.
To recover and recycle L1, crystals of Compound 3 (457 mg, 0.368 mmol) were dissolved in 1 M HNO3 (1 mL) to form a clear solution to which was added 1 M NaOH (2 mL). The mixture was stirred at room temperature overnight, and the resulting solid was filtered, washed with water, and dried. Yield: 388 mg. […] The solid mixture of L1.2H2O and Mg(OH)2 could be recycled by adding it to a fresh solution of the simulant, thereby initiating another separation cycle.
The recovered solid L1 and magnesium hydroxide were then added to a fresh simulant solution to start another cycle. Such cycling was repeated twice more. […] This established that the ligand is robust enough to survive at least three recovery cycles. Although this magnesium-based system is not applicable to the full alkaline conditions encountered in the nuclear waste, the ease of operation coupled with high efficiency and good ligand recyclability opens the door to other industrial sulfate separations from simpler, less basic aqueous solutions.

[4] = Relative solubility in water; format: physicochemical; conditions: pure water
Excerpt: The final crystalline solid was isolated in 90% yield, and its PXRD and FTIR spectra corresponded to those of pure Compound 1 (FIG. 4). The relatively long reaction time required to convert L1 to Compound 1 appeared to proceed via a three-phase process involving slow dissolution of L1 and its recrystallization into Compound 1.

[5] = Mg-based system (Rajbanshi et al. 2012); cited from earlier work

## O=C(NCCN(CCNC(=O)Nc1cccnc1)CCNC(=O)Nc1cccnc1)Nc1cccnc1 [Compound L1]
[1]; L1 2 equiv, Na2SO4 and Na2CO3 1 equiv each, H2O/MeOH, elemental analysis
  molar ratio of sulphate over competing carbonate in crystals: 11.5
[1]; L1 2 equiv, Na2SO4 and Na2SO3 1 equiv each, H2O/MeOH, elemental analysis
  molar ratio of sulphate over competing sulphite in crystals: 5.9
[1]; Na2SO4/Na2CrO4 mixture
  SO4^2−/CrO4^2− ratio in crystals: 2.0
[2]
  SO4^2−/CrO4^2− selectivity ratio: 1.1
  SO4^2−/SeO4^2− selectivity ratio: 13.3
[3]; Simulant 1, first listed cycle
  recovery of sulfate: 99.6%
[3]; Simulant 1, second listed cycle
  recovery of sulfate: 99.4%
[3]; Simulant 1, third listed cycle
  recovery of sulfate: 97.9%
[4]
  solubility relative to Compound 1: less soluble than Compound 1
[5]
  SO4^2−/SeO4^2− ratio: 3
